PubChem BioAssay AID330 (DTP/NCI, 2004)
Toxic doses and inconclusive results are not listed. Rule for the calls: active = survival T/C of 150% or more; inactive = T/C below 125% in these data.

System: P388 leukemia ip, CD2F1 mice, survival T/C
Assay: NCI In Vivo Anticancer Drug Screen. Data for tumor model P388 Leukemia (intraperitoneal) in CD2F1 (CDF1) mice
Conditions: endpoint: median survival time, higher = longer survival
Procedure, shortened: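 Mice carrying the transplanted tumor received test compound or vehicle. Survival was recorded in each group, and the value is the treated-group measurement divided by that of the vehicle-treated control group.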

[1] = dose: 50.0 mg/kg/injection, schedule: Q01DX009 (ip), vehicle: saline with Tween-80
[2] = dose: 100.0 mg/kg/injection, schedule: Q01DX009 (ip), vehicle: saline with Tween-80
[3] = dose: 200.0 mg/kg/injection, schedule: Q01DX009 (ip), vehicle: saline with Tween-80
[4] = dose: 60.0 mg/kg/injection, schedule: Q01DX005 (ip), vehicle: saline with Tween-80
[5] = dose: 120.0 mg/kg/injection, schedule: Q01DX005 (ip), vehicle: saline with Tween-80
[6] = dose: 240.0 mg/kg/injection, schedule: Q01DX005 (ip), vehicle: saline with Tween-80
[7] = dose: 50.0 mg/kg/injection, schedule: Q01DX009 (ip), vehicle: saline
[8] = dose: 100.0 mg/kg/injection, schedule: Q01DX009 (ip), vehicle: saline
[9] = dose: 50.0 mg/kg/injection, schedule: Q01DX005 (ip), vehicle: saline with Tween-80
[10] = dose: 100.0 mg/kg/injection, schedule: Q01DX005 (ip), vehicle: saline with Tween-80
[11] = dose: 200.0 mg/kg/injection, schedule: Q01DX005 (ip), vehicle: saline with Tween-80

Measured: T/C

Nc1ccc(S(=O)(=O)Nc2ccccc2-c2nc(N)nc(N)n2)cc1
inactive: [1] 98 % of control | [2] 97 % of control | [3] 94 % of control | dose: 400.0 mg/kg/injection, schedule: Q01DX009 (ip), vehicle: saline with Tween-80 101 % of control

CCCCC[C@@H]1CC=CC(NC(=O)OCc2ccccc2)C1C=O (some centres undefined)
inactive: [4] 100 % of control | [5] 103 % of control | [6] 105 % of control

CCCN(CCC)CCCOC(=O)c1ccc2oc3ccc(C(=O)OCCCN(CCC)CCC)cc3c2c1
inactive: [7] 103 % of control | [8] 106 % of control

O=C1c2ccccc2C(=O)c2c(OCCOCCO)cccc21
inactive: [9] 118 % of control | [10] 112 % of control | [11] 96 % of control

O=C(O)CCC1CC(=O)OC1c1ccccc1 (centres undefined)
inactive: dose: 100.0 mg/kg/injection, schedule: Q01DX001 (ip), vehicle: Klucel (hydroxypropylcellulose) (HPC) 94 % of control | dose: 200.0 mg/kg/injection, schedule: Q01DX001 (ip), vehicle: Klucel (hydroxypropylcellulose) (HPC) 94 % of control | dose: 400.0 mg/kg/injection, schedule: Q01DX001 (ip), vehicle: Klucel (hydroxypropylcellulose) (HPC) 94 % of control

c1ccc(-c2nc3ccccc3o2)cc1
inactive: dose: 25.0 mg/kg/injection, schedule: Q01DX009 (ip), vehicle: saline with Tween-80 86 % of control | [1] 98 % of control | [2] 101 % of control | [3] 88 % of control

Cc1c(-c2ccc(C3CCCCC3)cc2)nc2ccc(F)cc2c1C(=O)O
inactive: dose: 3.12 mg/kg/injection, schedule: Q01DX005 (ip), vehicle: Klucel (hydroxypropylcellulose) (HPC) 104 % of control | dose: 6.25 mg/kg/injection, schedule: Q01DX005 (ip), vehicle: Klucel (hydroxypropylcellulose) (HPC) 99 % of control | dose: 12.5 mg/kg/injection, schedule: Q01DX005 (ip), vehicle: Klucel (hydroxypropylcellulose) (HPC) 110 % of control | dose: 25.0 mg/kg/injection, schedule: Q01DX005 (ip), vehicle: Klucel (hydroxypropylcellulose) (HPC) 99 % of control

O=C(O)c1nnn(-c2ccccc2)n1
inactive: dose: 50.0 mg/kg/injection, schedule: Q01DX005 (ip), vehicle: saline 101 % of control | dose: 100.0 mg/kg/injection, schedule: Q01DX005 (ip), vehicle: saline 101 % of control | dose: 200.0 mg/kg/injection, schedule: Q01DX005 (ip), vehicle: saline 106 % of control

O=C(/C(Br)=C/c1ccccc1)/C(Br)=C/c1ccccc1
inactive: dose: 12.5 mg/kg/injection, schedule: Q01DX001 (ip), vehicle: saline with Tween-80 100 % of control | dose: 25.0 mg/kg/injection, schedule: Q01DX001 (ip), vehicle: saline with Tween-80 100 % of control | dose: 50.0 mg/kg/injection, schedule: Q01DX001 (ip), vehicle: saline with Tween-80 88 % of control

O=S(=O)(O)CCCCS(=O)(=O)O
inactive: [7] 99 % of control | [8] 108 % of control | dose: 200.0 mg/kg/injection, schedule: Q01DX009 (ip), vehicle: saline 110 % of control

COP(=O)(O)NS(C)(=O)=O
inactive: dose: 25.0 mg/kg/injection, schedule: Q01DX009 (ip), vehicle: saline 100 % of control | [7] 102 % of control | [8] 103 % of control

CC1C[N+]2(CNC(=O)c3ccccc3O)CC(C)O[B-]2(c2ccccc2)O1 (centres undefined)
inactive: dose: 50.0 mg/kg/injection, schedule: Q01DX005 (ip), vehicle: Klucel (hydroxypropylcellulose) (HPC) 103 % of control | dose: 100.0 mg/kg/injection, schedule: Q01DX005 (ip), vehicle: Klucel (hydroxypropylcellulose) (HPC) 100 % of control | dose: 200.0 mg/kg/injection, schedule: Q01DX005 (ip), vehicle: Klucel (hydroxypropylcellulose) (HPC) 103 % of control

Cc1cnc(C)[nH]1
inactive: [9] 102 % of control | [10] 86 % of control | [11] 102 % of control

O=C1OC(=O)C2C1C1C(c3ccccc3)=C(c3ccccc3)C2C2C(=O)OC(=O)C21 (centres undefined)
inactive: [4] 103 % of control | [5] 111 % of control | [6] 116 % of control
